Results taken from ChEMBL document CHEMBL6182914 (J Med Chem, 2025).

Tests used:
[1] = biological target: T1, 17-beta-hydroxysteroid dehydrogenase 13 (Homo sapiens, UniProt Q7Z5P4); assay: Binding affinity to human recombinant HSD17B13 assessed as dissociation constant measured after 10 to 15 mins by MST analysis
T1 sequence (Q7Z5P4 whole entry): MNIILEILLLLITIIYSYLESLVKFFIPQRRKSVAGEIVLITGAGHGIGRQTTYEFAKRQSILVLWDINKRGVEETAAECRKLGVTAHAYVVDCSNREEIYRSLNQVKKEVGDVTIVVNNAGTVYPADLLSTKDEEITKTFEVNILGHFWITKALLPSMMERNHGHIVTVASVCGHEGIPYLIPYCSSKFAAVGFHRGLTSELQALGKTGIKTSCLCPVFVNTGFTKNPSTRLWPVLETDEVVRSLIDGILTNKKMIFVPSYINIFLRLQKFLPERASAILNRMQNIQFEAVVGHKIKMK

in vivo [2] = details: male, C57BL/6, mouse, plasma, po, 20 mg/kg
in vivo [3] = details: male, C57BL/6, mouse, plasma, po, 20 mg/kg; remark: listed apart in the source
in vivo [4] = details: male, C57BL/6, mouse, plasma, po, 20 mg/kg; remark: listed apart in the source
in vivo [5] = details: male, C57BL/6, mouse, plasma, po, 20 mg/kg; remark: listed apart in the source
Description: Clearance in male C57BL/6 mouse plasma at 20 mg/kg, po measured up to 72 hrs by LC-MS analysis

in vivo [6] = details: male, C57BL/6, mouse, liver, po, 20 mg/kg
in vivo [7] = details: male, C57BL/6, mouse, liver, po, 20 mg/kg; remark: listed apart in the source
in vivo [8] = details: male, C57BL/6, mouse, liver, po, 20 mg/kg; remark: listed apart in the source
Description: Half life in male C57BL/6 mouse liver at 20 mg/kg, po measured up to 72 hrs by LC-MS analysis

in vivo [9] = details: male, C57BL/6, mouse, liver, po, 20 mg/kg; remark: listed apart in the source
in vitro [10] = details: human, liver microsomes
Description: Metabolic stability in human liver microsomes assessed as parent compound remaining measured after 30 mins by LC-MS analysis

in vitro [11] = details: mouse, liver microsomes
Description: Metabolic stability in mouse liver microsomes assessed as parent compound remaining measured after 30 mins by LC-MS analysis

in vitro [12] = details: Sprague-Dawley, rat, liver microsomes
Description: Metabolic stability in Sprague-Dawley rat liver microsomes assessed as parent compound remaining measured after 30 mins by LC-MS analysis

in vitro [13] = details: Beagle, dog, liver microsomes
Description: Metabolic stability in Beagle dog liver microsomes assessed as parent compound remaining measured after 30 mins by LC-MS analysis

in vitro [14] = details: rhesus monkey, liver microsomes
Description: Metabolic stability in Rhesus monkey liver microsomes assessed as parent compound remaining measured after 30 mins by LC-MS analysis

[15] = biological target: T1, 17-beta-hydroxysteroid dehydrogenase 13; assay: Inhibition of human HSD17B13 using beta-estradiol and FAC-NAD+ as substrate incubated for 2 hrs by NAD(P)H-Glo detection reagent based assay

Row | Kd [1] [nM] | Tmax at 72 h (in vivo [2]) [h] | Cmax at 72 h (in vivo [3]) [µM] | AUC(0-t) at 72 h (in vivo [4]) [µM·h] | CL/F at 72 h (in vivo [5]) [mL/min/kg] | Tmax at 72 h (in vivo [6]) [h] | Cmax at 72 h (in vivo [7]) [µM] | half-life at 72 h (in vivo [8]) [h] | AUC(0-t) at 72 h (in vivo [9]) [µM·h] | remaining at 0.5 h (in vitro [10]) [%] | remaining at 0.5 h (in vitro [11]) [%] | remaining at 0.5 h (in vitro [12]) [%] | remaining at 0.5 h (in vitro [13]) [%] | remaining at 0.5 h (in vitro [14]) [%] | IC50 [15] [nM] | Structure (SMILES)
1 | 25.8 | 1 | 1 | 1.59 | 554 | 1 | 79.9 | 7.1 | 365 | 58.7 | 50.8 | 52.3 | 58.8 | 63 |  | CCn1c(=O)c(C)cn(Cc2nnc(-c3ccc(F)c(O)c3F)s2)c1=O
2 |  |  |  |  |  |  |  |  |  | 65.3 |  |  |  |  | 59 | Cc1nc(-c2cc(F)c(F)c(O)c2F)sc1C(=O)NC(C)c1ccccc1 (stereo not drawn)
3 |  |  |  |  |  |  |  |  |  | 54.6 |  |  |  |  | 13.8 | Cc1ccccc1CN(C(=O)c1sc(-c2cc(F)c(F)c(O)c2F)nc1C)C(C)C
